From patent publication US9248131B2, “Aquaporin modulators and methods of using them for the treatment of edema and fluid imbalance” (THE ARIZONA BOARD OF REGENTS ON BEHALF OF THE UNIVERSITY OF …, priority 2006, dated 2016)

Legend:
[1] = system: astrocytes expressing AQP4; details: cited from earlier work
AQP4 = target: T1, AQP4 (Homo sapiens, UniProt P55087); experiment: Oocyte swelling assay: water permeability (Pf) of AQP4-expressing oocytes by videomicroscopy, block or % stimulation; assay type: cell-based; details: concentrations up to 1 mM
T1 construct: expressed in transfected cells; host or cells: Xenopus oocytes
Excerpt: A method for screening compounds for their ability to modulate aquaporin activity based on a water permeability assay in Xenopus oocytes expressing aquaporins which is used to identify, assess, and characterize compounds that either block or stimulate the aquaporin channels including AQP1, AQP4 and AQP9 channels.
Selection rationale and methodology. The ability of compounds, analogs and/or agents to block an aquaporin channel was quantified by videomicroscopic analyses of cross-sectional area of AQP-expressing oocytes as a function of time in a defined osmotic gradient, allowing the calculation of the water permeability factor (Pf), statistical evaluation of significant differences in the rate of water entry, and definition of dose response curves with IC50 values (concentration required for half-maximal block).
This compound evaluation method has been utilized with AQP1,-4,-5, and -9 channels. Observations of channel stimulation were made using the same assay method, however, the results were reported as % stimulation over control at a given concentration. […] TEA is known as a blocker of K^+ channel subtypes and nicotinic acetylcholine receptors. TEA sensitivity of AQP1 was removed by site-directed mutagenesis of tyrosine 186 to phenylalanine (Y186F) in the outer vestibule of the water pore, and confirmed that the inhibitory action of TEA is not due to nonspecific effects on endogenous channels (Brooks et al., 2000).

[2] = system: Na—K—Cl cotransporter (NKCC1); details: perfused kidney ascending loops of Henle; read-out: IC50 against Na—K—Cl cotransporter; cited from earlier work

T1 sequence (P55087 whole entry, species assumed): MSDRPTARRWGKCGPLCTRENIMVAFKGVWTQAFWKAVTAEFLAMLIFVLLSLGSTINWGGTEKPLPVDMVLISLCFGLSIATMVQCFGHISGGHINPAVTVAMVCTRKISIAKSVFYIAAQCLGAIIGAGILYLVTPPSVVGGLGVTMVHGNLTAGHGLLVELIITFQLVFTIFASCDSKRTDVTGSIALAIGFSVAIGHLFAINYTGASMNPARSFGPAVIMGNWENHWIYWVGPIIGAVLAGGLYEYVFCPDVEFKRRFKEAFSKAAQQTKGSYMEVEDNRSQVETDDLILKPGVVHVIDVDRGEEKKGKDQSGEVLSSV

## [Pb] [lead]
[1]
  increase in water permeability (Pf): 40%

## Cc1cccc(Nc2ccncc2S(=O)(=O)NC(=O)NC(C)C)c1 [torsemide, reference compound]
AQP4
  block of swelling in AQP4-expressing oocytes: no blocking effect
[2]
  IC50: 300 nM
